# Key:
# [1] = Cytotoxicity against human solid tumor cells assessed as growth inhibition; assay type: functional
# [2] = Half life in patient at 25 to 50 mg, administered as single dose; assay type: ADME, organism-based; details: human, in vivo
# [3] = Cytotoxicity against human hematopoietic malignant cells assessed as growth inhibition; assay type: functional
# [4] = AUC in patient at 32.5 mg, po administered as single dose; assay type: ADME, organism-based; details: human, in vivo
# [5] = Cmax in patient at 32.5 mg, po administered as single dose; assay type: ADME, organism-based; parameters: dose 32.5 mg, route oral; details: human, in vivo
smiles,measurement,setting,value
Nc1cc(F)ccc1NC(=O)c1ccc(CNC(=O)/C=C/c2cccnc2)cc1 [TUCIDINOSTAT],GI50,[1],6.65 µM
same,half-life,[2],24 h
same,GI50,[3],1.86 µM
same,AUC,[4],2.24 µM·h
same,Cmax,[5],312 nM

# From ChEMBL document CHEMBL3621159, “Discovery of an orally active subtype-selective HDAC inhibitor, chidamide, as an epigenetic modulator for cancer treatment” (Medchemcomm, 2014)
